Measured values published in patent US20230129095A1, “PEPTIDE INHIBITORS OF INTERLEUKIN-23 RECEPTOR AND THEIR USE TO TREAT INFLAMMATORY DISEASES” (Protagonist Therapeutics, Inc., priority 2020, published 2023).
*1 amine or outer side, *2 acyl side, *3 side chain or, on linkers, in order; H or OH if unused. Where a SMILES comes first, the peptide text is derived from it. Bridges are numbered along the chain shown (N, C = ends). [ ]: non-standard residue; d: D form. X6 = O=C([C@H](Cc1c[nH]c2c(-c3cccc(OC(F)(F)F)c3)cccc12)N[*:1])[*:2]; X5 = CC(C)c1cccc(-c2cccc3c(C[C@H](N[*:1])C(=O)[*:2])c[nH]c23)c1; X7 = O=C([C@H](Cc1c[nH]c2cc(-c3ccccc3)ccc12)N[*:1])[*:2]; Trp(7-Ph) = N[C@@H](Cc1c[nH]c2c(-c3ccccc3)cccc12)C(=O)O; X4 = O=C([C@H](Cc1c[nH]c2c(-c3ccsc3)cccc12)N[*:1])[*:2]; Abu(4-yl) = O=C([C@H](CC[*:3])N[*:1])[*:2]; 2Nal = N[C@@H](Cc1ccc2ccccc2c1)C(=O)O; AEF = NCCOc1ccc(C[C@H](N)C(=O)O)cc1; Pen = CC(C)(S)[C@H](N)C(=O)O; αMeK = C[C@](N)(CCCCN)C(=O)O

Tests used:
Assay type in all cases: in vitro ADME
[1] = Stability in human fecal homogenate (anaerobic); conditions: pH 6.8, 20% human fecal homogenate, 37° C., up to 24 hours, read-out: t1/2: Human Feces anaerobic
Description: (§1) Studies were carried out in human or cynomolgus monkey fecal homogenate to evaluate gastrointestinal stability of the peptide inhibitors of the present invention.
(§2) Fecal homogenate ([…]) was prepared by adding 4 mL of growth medium (1 liter contains 2 g peptone water powder, 2 g yeast extract, 0.1 g NaCl, 0.04 g KH2PO4, 0.01 g CaCl2.6H2O, 0.01 g MgSO4.7H2O, 2 mL Tween 80, 0.5 g bile salts, 0.5 g L-cysteine HCl, 2 g NaHCO3, and 10 μL Vitamin K, pH adjusted to 6.8, and sterilized by filtration through a 0.22 μm filter) to every gram of feces (pooled freshly collected human or cynomolgus monkey feces). The suspension was vortexed to break up large clumps, and homogenized using a bead mill homogenizer. Centrifuged the homogenate at 2800×g for 15 min. The supernatant is taken out and used for incubations. DMSO stocks (10 mM) were first prepared for the test compounds. Incubations were performed in an anaerobic chamber conditioned at 37° C. Aliquots of the DMSO solutions were dosed into 1.0 mL aliquots of 20% fecal homogenate, which are pre-warmed to 37° C. The final test compound concentration was 20 μM. At each timepoint (0, 20 min, 1, 3, 6, or 24 hours), 100 μL aliquot of each incubation mixture is taken out and added to separate tubes containing 300 μL of 50% acetonitrile/50% methanol and an internal standard to terminate the reaction. Samples were taken out of the anaerobic chamber and stored at 4° C. until the end of the experiment. After the final timepoint is sampled, the tubes were mixed and then centrifuged at 3,000 rpm for 10 minutes. Aliquots of the supernatant were removed, diluted 1:1 into distilled water containing 0.1% formic acid, and analyzed by LC/MS/MS. Percent remaining at each timepoint was calculated based on the peak area response ratio of test to compound to internal standard. Time 0 was set to 100%, and all later timepoints were calculated relative to time 0. Half-lives were calculated by fitting to a first-order exponential decay equation using Graphpad or Excel.

[2] = Stability in simulated intestinal fluid (SIF); conditions: 37° C.; for SIF t1/2: 100 fold dilution of standard SIF concentration, 20 μM; for half-life at 20 μM: pH 6.8, 100 fold dilution of standard SIF concentration, read-out: SIF t1/2 (converted)
Description: Studies were carried out in simulated intestinal fluid (SIF) and simulated gastric fluid (SGF) to evaluate gastric stability of the peptide inhibitors of the present invention. In addition, studies were carried out to assess redox stability of the peptide inhibitors of the present invention.
SIF was prepared by adding 6.8 g of monobasic potassium phosphate and 10.0 g of pancreatin to 1.0 L of water. After dissolution, the pH was adjusted to 6.8 using NaOH. DMSO stocks (2 mM) were first prepared for the test compounds. Aliquots of the DMSO solutions were dosed into 6 individual tubes, each containing 0.5 mL of SIF, which is pre-warmed to 37° C. The final test compound concentration was 20 μM. The vials were kept in a benchtop Thermomixer® for the duration of the experiment. At each timepoint (0, 5, 10, 20, 40, 60, or 360 minutes or 24 hours), 1.0 mL of acetonitrile containing 1% formic acid was added to one vial to terminate the reaction. Samples were stored at 4° C. until the end of the experiment. After the final timepoint is sampled, the tubes were mixed and then centrifuged at 3,000 rpm for 10 minutes. Aliquots of the supernatant were removed, diluted 1:1 into distilled water containing internal standard, and analyzed by LCMS/MS. Percent remaining at each timepoint was calculated based on the peak area response ratio of test to compound to internal standard. Time 0 was set to 100%, and all later timepoints were calculated relative to time 0. Half-lives were calculated by fitting to a first-order exponential decay equation using Graphpad.

[3] = Stability in cynomolgus monkey fecal homogenate (anaerobic); conditions: pH 6.8, 20% cynomolgus monkey fecal homogenate, 37° C., up to 24 hours, read-out: t1/2: Monkey Feces anaerobic (converted)
Description: as §1, §2

Stability in rat plasma = conditions: both sexes, SD rat plasma, EDTA, 37° C., up to 24 hours, read-out: t1/2: Rat Plasma EDTA
Description: Peptides of interest (20 μM) were incubated with pre-warmed rat plasma (SD rat, mixed gender pooled, EDTA, filtered through 0.22 μm, BioreclamationIVT) at 37° C. Aliquots were taken at various time points up to 24 hours (e.g. 0, 0.25, 1, 3, 6 and 24 hr), and immediately quenched with 4 volumes of organic solvent (acetonitrile/methanol (1:1) and 0.1% formic acid, containing 1 μM internal standard). Quenched samples were stored at 4° C. until the end of the experiment and centrifuged at 4,000 rpm for 10 minutes. The supernatant were diluted 1:1 with deionized water and analyzed using LC-MS. Percentage remaining at each time point was calculated based on the peak area ratio (analyte over internal standard) relative to the initial level at time zero. Half-lives were calculated by fitting to a first-order exponential decay equation using GraphPad.

[4] = 20% fecal homogenate (supernatant)

Compound | half-life at 20 μM [1, 4] [h] | SIF t1/2 [2] [h] | half-life at 20 μM [3, 4] [h] | half-life at 20 μM (Stability in rat plasma) [h] | half-life at 20 μM [1] [h] | half-life at 20 μM [2] [h] | half-life at 20 μM [3] [h] | half-life at 20 μM (Stability in rat plasma; pooled) [h]
CC(=O)NCCCC[C@H](NC(=O)[C@](C)(CCCCN)NC(=O)[C@H](Cc1ccc2ccccc2c1)NC(=O)[C@H](Cc1ccc(OCCN)cc1)NC(=O)[C@H]1NC(=O)[C@H](CCC(N)=O)NC(=O)[C@H](Cc2c[nH]c3c(-c4ccsc4)cccc23)NC(=O)[C@H]([C@@H](C)O)NC(=O)[C@H](CC(N)=O)NC(=O)[C@@H](NC(C)=O)C(C)(C)SSC1(C)C)C(=O)N[C@@H](CC(N)=O)C(=O)N[C@H](CCCCN)C(N)=O [Peptide 2] (Ac-[Pen]NT[X4]Q[Pen][AEF][2Nal][αMeK]K(Ac)N[dK]-NH2; disulfide 1-6) | > 24 | 24 | > 24 | > 24 |  |  |  | 
CC(=O)NCCCC[C@@H]1NC(=O)[C@H](Cc2c[nH]c3c(-c4ccccc4)cccc23)NC(=O)[C@H]([C@@H](C)O)NC(=O)[C@H](CCC(N)=O)NC(=O)[C@@H](NC(=O)[C@@H](CCCNC(=N)N)NC(C)=O)CCSC[C@@H](C(=O)N[C@@H](Cc2ccc(OCCN)cc2)C(=O)N[C@@H](Cc2ccc3ccccc3c2)C(=O)N[C@@](C)(CCCCN)C(=O)N[C@@H](CCCCNC(C)=O)C(=O)N[C@@H](CC(N)=O)C(=O)N[C@H](CCCCN)C(N)=O)NC1=O [Peptide 5, Ac-[(D)Arg]-[Abu]-Q-T-[W(7-Ph)]-[Lys(Ac)]-[Cys]-Phe[4-(2-aminoethoxy)]-[2-Nal]-[a-MeLys]-[Lys(Ac)]-N-[(D)Lys)]-NH2] (Ac-[dR][Abu(4-yl)]QT[Trp(7-Ph)]K(Ac)C[AEF][2Nal][αMeK]K(Ac)N[dK]-NH2; thioether 2-7) |  |  |  |  | > 24 | 6 | > 24 | > 24
CC(=O)NCCCC[C@@H]1NC(=O)[C@H](Cc2c[nH]c3c(-c4cccc(OC(F)(F)F)c4)cccc23)NC(=O)[C@H]([C@@H](C)O)NC(=O)[C@H](CC(N)=O)NC(=O)[C@@H](NC(C)=O)C(C)(C)SSC(C)(C)[C@@H](C(=O)N[C@@H](Cc2ccc(OCCN)cc2)C(=O)N[C@@H](Cc2ccc3ccccc3c2)C(=O)N[C@@](C)(CCCCN)C(=O)N[C@@H](CCCCNC(C)=O)C(=O)N[C@@H](CC(N)=O)C(=O)N[C@H](CCCCN)C(N)=O)NC1=O [Peptide 12, Ac-[Pen]-N-T-[W(7-(3-OCF3Ph))]-[Lys(Ac)]-[Pen]-Phe[4-(2-aminoethoxy)]-[2-Nal]-[a-MeLys]-[Lys(Ac)]-N-[(D)Lys)]-NH2] (Ac-[Pen]NT[X6]K(Ac)[Pen][AEF][2Nal][αMeK]K(Ac)N[dK]-NH2; disulfide 1-6) |  | 24 |  |  | > 24 |  | > 6 | > 24
CC(=O)NCCCC[C@@H]1NC(=O)[C@H](Cc2c[nH]c3c(-c4ccccc4)cccc23)NC(=O)[C@H]([C@@H](C)O)NC(=O)[C@H](CCC(N)=O)NC(=O)[C@@H](NC(=O)[C@@H](CCCNC(=N)N)NC(C)=O)CCSC[C@@H](C(=O)N[C@@H](Cc2ccc(OCCN)cc2)C(=O)N[C@@H](Cc2ccc3ccccc3c2)C(=O)N[C@@](C)(CCCCN)C(=O)N[C@@H](CCCCNC(C)=O)C(=O)N[C@@H](CC(N)=O)C(=O)N[C@H](CC(C)C)C(N)=O)NC1=O [Peptide 3, Ac-[(D)Arg]-Abu-Q-T-[W(7-Ph)]-[Lys(Ac)]-[Cys]-Phe[4-(2-aminoethoxy)]-[2-Nal]-[a-MeLys]-[Lys(Ac)]-N-[(D)Leu]-NH2] (Ac-[dR][Abu(4-yl)]QT[Trp(7-Ph)]K(Ac)C[AEF][2Nal][αMeK]K(Ac)N[dL]-NH2; thioether 2-7) |  | 24 |  |  | > 24 |  | > 24 | > 24
CC(=O)NCCCC[C@@H]1NC(=O)[C@H](Cc2c[nH]c3c(-c4cccc(C(C)C)c4)cccc23)NC(=O)[C@H]([C@@H](C)O)NC(=O)[C@H](CC(N)=O)NC(=O)[C@@H](NC(C)=O)C(C)(C)SSC(C)(C)[C@@H](C(=O)N[C@@H](Cc2ccc(OCCN)cc2)C(=O)N[C@@H](Cc2ccc3ccccc3c2)C(=O)N[C@@](C)(CCCCN)C(=O)N[C@@H](CCCCNC(C)=O)C(=O)N[C@@H](CC(N)=O)C(=O)N[C@H](CCCCN)C(N)=O)NC1=O [Peptide 11, Ac-[Pen]-N-T-[W(7-(3-iPrPh))]-[Lys(Ac)]-[Pen]-Phe[4-(2-aminoethoxy)]-[2-Nal]-[a-MeLys]-[Lys(Ac)]-N-[(D)Lys)]-NH2] (Ac-[Pen]NT[X5]K(Ac)[Pen][AEF][2Nal][αMeK]K(Ac)N[dK]-NH2; disulfide 1-6) |  | 24 |  |  | > 24 |  | > 24 | > 24
CC(=O)NCCCC[C@@H]1NC(=O)[C@H](Cc2c[nH]c3c(-c4ccccc4)cccc23)NC(=O)[C@H]([C@@H](C)O)NC(=O)[C@H](CCC(N)=O)NC(=O)[C@@H](NC(=O)[C@@H](CCCNC(=N)N)NC(C)=O)CCSC[C@@H](C(=O)N[C@@H](Cc2ccc(OCCN)cc2)C(=O)N[C@@H](Cc2ccc3ccccc3c2)C(=O)N[C@@](C)(CCCCN)C(=O)N[C@@H](CCCCNC(C)=O)C(=O)N[C@@H](CC(N)=O)C(N)=O)NC1=O [Peptide 4, Ac-[(D)Arg]-[Abu]-Q-T-[W(7-Ph)]-[Lys(Ac)]-[Cys]-Phe[4-(2-aminoethoxy)]-[2-Nal]-[a-MeLys]-[Lys(Ac)]-NNH2] (Ac-[dR][Abu(4-yl)]QT[Trp(7-Ph)]K(Ac)C[AEF][2Nal][αMeK]K(Ac)N-NH2; thioether 2-7) |  |  |  |  | > 24 | 5.1 | 14.1 | > 24
CC(=O)NCCCC[C@@H]1NC(=O)[C@H](Cc2c[nH]c3cc(-c4ccccc4)ccc23)NC(=O)[C@H]([C@@H](C)O)NC(=O)[C@H](CC(N)=O)NC(=O)[C@@H](NC(C)=O)C(C)(C)SSC(C)(C)[C@@H](C(=O)N[C@@H](Cc2ccc(OCCN)cc2)C(=O)N[C@@H](Cc2ccc3ccccc3c2)C(=O)N[C@@](C)(CCCCN)C(=O)N[C@@H](CCCCNC(C)=O)C(=O)N[C@@H](CC(N)=O)C(=O)N[C@H](CCCCN)C(N)=O)NC1=O [Peptide 6, Ac-[Pen]-N-T-[W(6-Ph)]-[Lys(Ac)]-[Pen]-Phe[4-(2-aminoethoxy)]-[2-Nal]-[a-MeLys]-[Lys(Ac)]-N-[(D)Lys)]-NH2] (Ac-[Pen]NT[X7]K(Ac)[Pen][AEF][2Nal][αMeK]K(Ac)N[dK]-NH2; disulfide 1-6) |  | 24 |  |  | > 24 |  | > 24 | > 24
